{"source": "patent US20090042869A1", "about": "“SIGNAL-DEPENDENT SPLICING OF TISSUE FACTOR PRE-mRNA IN [sequence] CELLS” (UNIVERSITY OF UTAH RESEARCH FOUNDATION, priority 2007, published 2009)", "key": {"activated platelets": {"test_system": "activated platelets", "experiment": "TF-dependent procoagulant activity (Actichrome TF assay)", "format": "cell-based, human", "details": "stimulated platelets (fibrinogen + thrombin)", "excerpt": "(§1) CD34+ stem cells were isolated from human umbilical cord blood and were differentiated into megakaryocytes that produce proplatelets using methods that we have previously described^18. Leukocyte-depleted human platelets were isolated from healthy volunteers using previously described methods^18,29. For all of the platelet studies, residual leukocytes were removed from the washed preparations by CD45+ bead selection as previously described^1. […] Platelets were resuspended in M199 serum-free culture medium^1,2. Platelets were left quiescent or allowed to adhere to immobilized human fibrinogen (Calbiochem) in the presence of thrombin (0.05 U/ml; Sigma-Aldrich). Select studies were also conducted with suspended platelets that were activated with ADP, collagen, or thrombin. […] For translational inhibition, platelets were isolated and preincubated for 2 h in the presence of vehicle (water) or puromycin as previously described^2.\nTF-dependent procoagulant activity was calculated with an Actichrome TF assay (American Diagnostica) as previously described^13. […] Intact cellular membranes and microparticles were immediately placed in 25 μl of kit assay buffer and TF-dependent procoagulant activity was calculated. […]"}, "TF pre-mRNA [1]": {"test_system": "TF pre-mRNA", "experiment": "TF pre-mRNA splicing in platelets of subjects receiving medication", "format": "in vivo, human", "details": "for signal-dependent TF pre-mRNA splicing: in the elderly; for impact on TF pre-mRNA splicing: subjects receiving the drug"}, "IL-1β pre-mRNA": {"test_system": "IL-1β pre-mRNA", "experiment": "IL-1β pre-mRNA splicing in platelets of subjects receiving medication", "format": "in vivo, human", "details": "in young subjects"}, "mClk3": {"biological_target": "mClk3 (Mus musculus, UniProt O35492)", "sequence (O35492 whole entry)": "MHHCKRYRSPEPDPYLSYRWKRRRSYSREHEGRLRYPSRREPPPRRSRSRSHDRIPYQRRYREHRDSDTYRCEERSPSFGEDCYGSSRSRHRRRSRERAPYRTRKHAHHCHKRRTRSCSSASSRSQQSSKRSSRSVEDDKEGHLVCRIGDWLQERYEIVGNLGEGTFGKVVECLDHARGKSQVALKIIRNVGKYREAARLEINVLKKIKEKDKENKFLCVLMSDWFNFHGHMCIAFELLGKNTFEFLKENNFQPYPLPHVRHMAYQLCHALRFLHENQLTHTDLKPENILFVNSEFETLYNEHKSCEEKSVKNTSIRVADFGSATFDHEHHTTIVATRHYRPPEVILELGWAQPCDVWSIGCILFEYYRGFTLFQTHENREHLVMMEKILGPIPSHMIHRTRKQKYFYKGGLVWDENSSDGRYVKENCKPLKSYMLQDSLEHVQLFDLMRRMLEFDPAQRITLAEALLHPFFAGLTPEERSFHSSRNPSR", "details": "cited from earlier work"}, "SRPK2": {"biological_target": "SRPK2 (Homo sapiens, UniProt P78362)", "sequence (P78362 whole entry, species assumed)": "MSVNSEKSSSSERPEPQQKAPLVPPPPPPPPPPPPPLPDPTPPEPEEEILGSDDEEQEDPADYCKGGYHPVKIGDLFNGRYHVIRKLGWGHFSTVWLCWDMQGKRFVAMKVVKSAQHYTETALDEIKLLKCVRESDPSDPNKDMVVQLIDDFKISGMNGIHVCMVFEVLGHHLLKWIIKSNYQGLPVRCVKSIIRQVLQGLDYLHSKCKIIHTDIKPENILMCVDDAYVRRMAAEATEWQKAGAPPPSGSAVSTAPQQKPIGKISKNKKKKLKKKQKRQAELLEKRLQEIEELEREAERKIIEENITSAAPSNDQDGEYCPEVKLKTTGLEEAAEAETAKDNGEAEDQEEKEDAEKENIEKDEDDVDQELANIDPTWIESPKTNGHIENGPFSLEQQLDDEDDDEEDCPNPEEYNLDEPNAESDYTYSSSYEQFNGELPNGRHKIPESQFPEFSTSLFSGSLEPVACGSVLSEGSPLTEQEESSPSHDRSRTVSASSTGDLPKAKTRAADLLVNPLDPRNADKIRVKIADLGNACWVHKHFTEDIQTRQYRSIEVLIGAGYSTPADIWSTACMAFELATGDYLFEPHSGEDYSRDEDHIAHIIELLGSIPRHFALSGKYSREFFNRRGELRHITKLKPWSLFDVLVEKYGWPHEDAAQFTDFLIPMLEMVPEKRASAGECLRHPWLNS", "details": "at concentrations up to 1 μM; cited from earlier work"}, "platelets": {"test_system": "platelets", "experiment": "Other platelet functional responses (immunocytochemistry)", "format": "cell-based, human", "details": "fibrinogen + thrombin, 1 h", "procedure": "After 1 h, the cells were prepared for immunocytochemical detection (red staining) of Clk1 (top) or β-tubulin (bottom). The green stain in each panel identifies polymerized actin.\nDetailed strategies for protein detection by flow cytometry, Western blot analysis, and immunocytochemistry have been previously published^18,29. A polyclonal antibody against human TF (pAb CL 20150A; Affinity Biologicals) was used under nonreducing conditions to detect TF protein by Western analysis. Antibodies directed against TF (mAb 550252; BD Biosciences), Clk family members (Abgent), or β-tubulin (Sigma-Aldrich) were used for immunocytochemical studies. For the in situ experiments, polymerized actin was detected with Alexa fluor 488 phalloidin (Molecular Probes). Specificity was confirmed by parallel studies with nonimmune IgG or deletion of the primary antibody. Detailed strategies for protein detection by Western analysis and immunocytochemistry have been previously published^1,2. Flow cytometric analysis of surface-expressed CD14, CD45, and CD162 (PSGL-1) was performed on washed platelet preparations before and after CD45 depletion, on CD45 positively selected cells, and on purified monocytes (FIG. 1)."}, "human plasma": {"test_system": "human plasma", "experiment": "Plasma clot formation with membranes from activated platelets", "format": "cell-based", "details": "membranes of platelets activated 5 min or 2 h", "procedure": "FIG. 5F illustrates clot formation in plasma that is incubated with membranes isolated from quiescent platelets or platelets activated with fibrinogen and thrombin for 5 min (left) or 2 h (right). The white bars represent activated platelets that were incubated with a neutralizing antibody directed against tissue factor (Anti-TF). The data in FIGS. 5D, 5E, an 5F represent the mean±SEM of six independent experiments.\nFIG. 8B is a western blot analysis showing TF protein expression in platelets and platelet-derived microparticles. […] Recombinant TF was used as a positive control. FIG. 8C depicts TF-dependent procoagulant activity in freshly isolated platelets or platelets activated, as in FIG. 2B, in the presence or absence of the Clk inhibitor. […] A single asterisk (*) indicates a statistically significant difference (P<0.05) in TF-dependent procoagulant activity between freshly isolated (baseline) and activated platelets; the double asterisk (**) represents a significant difference (P<0.05) between activated platelets under untreated or treated conditions. […] The activated platelets were pretreated with either the Clk inhibitor (Clk Inh) or DMSO. The data represent the mean±SEM of five independent experiments. […]\nTherefore, the affect of platelet-derived TF on plasma clotting times was determined. […]"}, "TF pre-mRNA [2]": {"test_system": "TF pre-mRNA", "experiment": "TF pre-mRNA splicing in activated platelets (PCR)", "format": "cell-based, human", "details": "platelets adherent to fibrinogen, coactivated with thrombin 2 h", "excerpt": "as §1, with “described^2. For most of the TF pre-mRNA studies, primers that targeted sequences in exon four ([NT] ID NO: 1) and five ([NT] ID NO: 2), and thus spanned intron four, were used to determine endogenous splicing of TF pre-mRNA in platelets. Indirect in situ hybridization or direct in situ PCR was used to detect TF pre-mRNA in megakaryocytes and platelets as previously described^18. Primers that detected alternatively spliced human […] used as previously described^3. […]” for “described^2.”"}, "SRPK1": {"biological_target": "SRPK1 (Homo sapiens, UniProt Q96SB4)", "sequence (Q96SB4 whole entry, species assumed)": "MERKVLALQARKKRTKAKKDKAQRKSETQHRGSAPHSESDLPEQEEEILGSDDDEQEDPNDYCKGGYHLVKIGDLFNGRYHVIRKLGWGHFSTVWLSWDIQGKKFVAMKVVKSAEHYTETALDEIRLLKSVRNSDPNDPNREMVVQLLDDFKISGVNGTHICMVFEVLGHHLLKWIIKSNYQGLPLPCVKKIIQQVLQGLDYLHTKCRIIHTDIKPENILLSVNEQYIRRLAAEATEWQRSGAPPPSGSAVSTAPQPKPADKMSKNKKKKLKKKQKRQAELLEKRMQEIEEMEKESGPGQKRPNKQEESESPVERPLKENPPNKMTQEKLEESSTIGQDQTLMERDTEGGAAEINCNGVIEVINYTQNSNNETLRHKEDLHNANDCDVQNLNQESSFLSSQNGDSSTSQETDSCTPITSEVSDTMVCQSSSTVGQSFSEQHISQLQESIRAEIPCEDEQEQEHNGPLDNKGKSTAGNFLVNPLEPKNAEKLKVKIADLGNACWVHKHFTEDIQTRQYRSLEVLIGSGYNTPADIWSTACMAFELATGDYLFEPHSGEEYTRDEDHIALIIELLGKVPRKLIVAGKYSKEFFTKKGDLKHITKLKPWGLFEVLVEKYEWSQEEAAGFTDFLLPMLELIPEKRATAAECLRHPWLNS", "details": "at concentrations up to 1 μM; cited from earlier work"}, "Clk1": {"biological_target": "Clk1 (Homo sapiens, UniProt P49759)", "sequence (P49759 whole entry)": "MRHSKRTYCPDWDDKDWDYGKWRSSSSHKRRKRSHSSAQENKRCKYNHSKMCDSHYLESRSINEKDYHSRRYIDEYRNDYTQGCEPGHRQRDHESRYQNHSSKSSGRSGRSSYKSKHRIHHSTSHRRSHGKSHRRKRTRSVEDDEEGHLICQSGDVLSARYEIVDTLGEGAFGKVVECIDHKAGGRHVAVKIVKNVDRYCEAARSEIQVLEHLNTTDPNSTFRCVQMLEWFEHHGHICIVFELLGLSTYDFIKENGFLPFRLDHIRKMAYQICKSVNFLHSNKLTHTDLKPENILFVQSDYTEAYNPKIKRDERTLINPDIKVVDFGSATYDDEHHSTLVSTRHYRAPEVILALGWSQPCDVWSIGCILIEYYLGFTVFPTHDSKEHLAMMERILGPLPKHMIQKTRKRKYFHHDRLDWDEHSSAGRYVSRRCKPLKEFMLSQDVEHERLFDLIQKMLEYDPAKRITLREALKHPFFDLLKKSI", "experiment": "Immune complex kinase assay for Clk1 activity in platelets (SF2/ASF substrate)", "format": "cell-based", "details": "stimulated platelets (fibrinogen + thrombin), pretreated; vs vehicle", "description": "Leukocyte-depleted human platelets were isolated from healthy volunteers using previously described methods^18,29. For all of the platelet studies, residual leukocytes were removed from the washed preparations by CD45+ bead selection as previously described^1. […] Platelets were resuspended in M199 serum-free culture medium^1,2. Platelets were left quiescent or allowed to adhere to immobilized human fibrinogen (Calbiochem) in the presence of thrombin (0.05 U/ml; Sigma-Aldrich). […] For translational inhibition, platelets were isolated and preincubated for 2 h in the presence of vehicle (water) or puromycin as previously described^2.\nImmune complex kinase assay for Clk1 activity. Clk1 activity in platelets was determined using an immune complex kinase assay. […] Kinase assays were performed by addition of recombinant SF2/ASF (Protein One) in the presence of γ-[^32P]ATP (MP Biomedicals). At the end of this incubation period, the agarose beads and immune complexes were removed by centrifugation, and the unbound sample, which contained SF2/ASF, was resolved by SDS-PAGE."}, "PKA": {"test_system": "PKA", "details": "at concentrations up to 1 μM; cited from earlier work"}, "TF protein": {"test_system": "TF protein", "experiment": "TF protein expression in platelets and platelet-derived microparticles (Western blot)", "format": "cell-based, human", "details": "activated platelets, 30 min or 4 h", "excerpt": "as §1\nDetailed strategies for protein detection by flow cytometry, Western blot analysis, and immunocytochemistry have been previously published^18,29. A polyclonal antibody against human TF (pAb CL 20150A; Affinity Biologicals) was used under nonreducing conditions to detect TF protein by Western analysis. […] For the in situ experiments, polymerized actin was detected with Alexa fluor 488 phalloidin (Molecular Probes). […]"}, "PKC": {"test_system": "PKC", "details": "at concentrations up to 1 μM; cited from earlier work"}}, "data": [{"compound": "COc1ccc(C[C@H](N)C(=O)N[C@H]2[C@@H](O)[C@H](n3cnc4c(N(C)C)ncnc43)O[C@@H]2CO)cc1", "note": "[Puromycin]", "values": [{"measurement": "TF-dependent procoagulant activity", "setting": "activated platelets", "result": "significantly (P<0.05) reduced"}]}, {"compound": "heparin", "values": [{"measurement": "signal-dependent TF pre-mRNA splicing", "setting": "TF pre-mRNA [1]", "result": "do not block"}, {"measurement": "impact on TF pre-mRNA splicing", "setting": "TF pre-mRNA [1]", "result": "do not appear to have a significant impact"}, {"measurement": "IL-1β pre-mRNA splicing", "setting": "IL-1β pre-mRNA", "result": "do not block"}]}, {"compound": "CC(=O)Oc1ccccc1C(=O)O", "note": "[aspirin]", "values": [{"measurement": "signal-dependent TF pre-mRNA splicing", "setting": "TF pre-mRNA [1]", "result": "do not block"}, {"measurement": "impact on TF pre-mRNA splicing", "setting": "TF pre-mRNA [1]", "result": "do not appear to have a significant impact"}, {"measurement": "IL-1β pre-mRNA splicing", "setting": "IL-1β pre-mRNA", "result": "do not block"}]}, {"compound": "CCN1/C(=C/C(C)=O)Sc2ccc(OC)cc21", "note": "[Tg003, (Z)-1-(3-Ethyl-5-methoxy-2,3-dihydrobenzothiazol-2-ylidene)propan-2-one]", "values": [{"measurement": "IC50", "setting": "mClk3", "result": "> 10", "unit": "µM"}, {"measurement": "effect on activity of SRPK2", "setting": "SRPK2", "result": "does not affect"}, {"measurement": "other platelet functional responses (adherence and spreading, actin polymerization, tubulin organization, Clk1 redistribution)", "setting": "platelets", "result": "no effect"}, {"measurement": "onset of plasma clot formation", "setting": "human plasma", "result": "delayed"}, {"measurement": "TF-dependent procoagulant activity", "setting": "activated platelets", "result": "significantly (P<0.05) reduced"}, {"measurement": "processing of TF pre-mRNA", "setting": "TF pre-mRNA [2]", "result": "prevented"}, {"measurement": "effect on activity of SRPK1", "setting": "SRPK1", "result": "does not affect"}, {"measurement": "Clk1-dependent SF2/ASF phosphorylation", "setting": "Clk1", "result": "suppressed"}, {"measurement": "effect on activity of PKA", "setting": "PKA", "result": "does not affect"}, {"measurement": "expression of TF protein", "setting": "TF protein", "result": "blocked"}, {"measurement": "effect on activity of PKC", "setting": "PKC", "result": "does not affect"}]}]}
